Measured values published in PMC3372685 (Biochemical Pharmacology, 2012).
Where two headings read alike, the source gives them in different places.

How the values were obtained:
zebrafish α7 nAChR [1] = biological target: T1, zebrafish α7 nAChR (Danio rerio, UniProt Q800C7); experiment: Agonist-evoked responses, two-electrode voltage clamp in Xenopus oocytes; assay type: cell-based; settings: for Activation of fish α7 nAChR: prototypical α7-selective agonists; for Emax: read-out: Imax; for Agonist type compared to ACh: α7
zebrafish α4β2 nAChR [2] = biological target: T2, zebrafish α4β2 nAChR (Danio rerio, UniProt E7F4S7+Q0PJT8); experiment: as above; assay type: cell-based; settings: for Activation of α4β2 receptors by probe concentration: 30 µM 4OH-GTS-21 and tropane, 300 µM choline; for Emax: read-out: Imax
[3] = tested on: zebrafish heteromeric nAChR subtypes (α3β4, α1β1bεδ, α2β2, α4β2); assay type: cell-based, zebrafish (Danio rerio); settings: co-application, 30 µM 4OH-GTS-21 and tropane, 300 µM choline
[4] = biological target: T3, zebrafish α3β4F106Y nAChR (Danio rerio, UniProt A0A0R4ISQ3+A0A8M1QHJ5, F140Y); experiment: cell-based
zebrafish α3β4 nAChR [5] = biological target: T4, zebrafish α3β4 nAChR (Danio rerio, UniProt A0A0R4ISQ3+A0A8M1QHJ5); experiment: Agonist-evoked responses, two-electrode voltage clamp in Xenopus oocytes; assay type: cell-based; settings: for Emax: read-out: Imax; for Agonist type compared to ACh: α3β4
zebrafish [6] = settings: previous work; cited from earlier work
zebrafish [7] = settings: cited from earlier work
human α7 nAChR = settings: read-out: EC50 for human α7; used as probe concentration; cited from earlier work
zebrafish α2β2 nAChR [8] = biological target: T5, zebrafish α2β2 nAChR (Danio rerio, UniProt A0ACM8Q9T8+E7F4S7); experiment: cell-based
[9] = biological target: T6, zebrafish muscle α1β1bεδ nAChR (Danio rerio, UniProt A2BG85+G1FMP8+Q75XT1+Q98880); experiment: cell-based; settings: read-out: Imax
[10] = biological target: T3, zebrafish α3β4F106Y nAChR
[11] = biological target: T6, zebrafish muscle α1β1bεδ nAChR; settings: for EC50: peak current amplitude
zebrafish α7 nAChR [12] = biological target: T1, zebrafish α7 nAChR; experiment: cell-based
zebrafish α3β4 nAChR [13] = biological target: T4, zebrafish α3β4 nAChR; experiment: Inhibition of ACh-evoked responses by co-applied mecamylamine in Xenopus oocytes; assay type: cell-based
zebrafish α2β2 nAChR [14] = biological target: T5, zebrafish α2β2 nAChR; experiment: cell-based; remark: listed apart in the source
zebrafish α2β2 nAChR [15] = biological target: T5, zebrafish α2β2 nAChR; settings: α2β2, ACh control after normal washout
zebrafish [16] = settings: cited from earlier work; remark: listed apart in the source
[17] = biological target: T6, zebrafish muscle α1β1bεδ nAChR; settings: for IC50: α1β1bεδ, co-application with 30 µM ACh
zebrafish [18] = settings: given 5 minutes before the task (not if 40 minutes prior); cited from earlier work
rat α3β4 nAChR = settings: rat α3β4, co-application of 100 µM ACh with 3 µM mecamylamine; cited from earlier work
zebrafish α4β2 nAChR [19] = biological target: T2, zebrafish α4β2 nAChR; settings: α4β2, ACh control after normal washout
[20] = tested on: human and zebrafish α3β4 and α4β2 nAChR; assay type: cell-based; settings: α3β4 and α4β2, repeated application protocol, low concentration of mecamylamine
zebrafish α7 nAChR [21] = biological target: T1, zebrafish α7 nAChR; settings: α7, data not shown
zebrafish [22] = settings: cited from earlier work; remark: listed apart in the source

SMILES: COc1cc(O)ccc1/C=C1\CCCN=C1c1cccnc1 [4OH-GTS-21, 3-(4-hydroxy, 2-methoxybenzylidene)anabaseine]
- Activation of fish α7 nAChR (zebrafish α7 nAChR [1]): activate
- Activation of α4β2 receptors by probe concentration (zebrafish α4β2 nAChR [2]): evoked significant responses
- Inhibition of ACh-evoked responses of heteromeric nAChR subtypes [3]: inhibited all of the heteromeric receptors

SMILES: CC(=O)OCC[N+](C)(C)C [ACh, acetylcholine]
- EC50 (zebrafish α7 nAChR [1]): 39 ± 3 µM
- EC50 [4]: 134 ± 5 µM
- EC50 (zebrafish α3β4 nAChR [5]): 73 ± 3 µM

SMILES: CO[C@H]1CC=C2CCN3CCC4=C(CC(=O)OC4)[C@]23C1 [DHβE, dihydro-beta-erythroidine]
- Effect on nicotine-induced increase in swimming activity (zebrafish [6]): blocked
- Effect on anxiolytic effects of nicotine (zebrafish [7]): blocked

SMILES: CCN1C[C@]2(COC(=O)c3ccccc3N3C(=O)C[C@H](C)C3=O)CC[C@H](OC)[C@@]34[C@@H]5C[C@H]6[C@H](OC)[C@@H]5[C@](O)(C[C@@H]6OC)[C@@](O)([C@@H](OC)[C@H]23)[C@@H]14 [MLA, methyllycaconitine]
- Effect on nicotine-induced increase in swimming activity (zebrafish [6]): blocked
- Effect on anxiolytic effects of nicotine (zebrafish [7]): blocked

SMILES: C[N+](C)(C)CCO [choline]
- Activation of fish α7 nAChR (zebrafish α7 nAChR [1]): activate
- Activation of α4β2 receptors by probe concentration (zebrafish α4β2 nAChR [2]): evoked significant responses
- EC50 (human α7 nAChR): 300 µM
- Inhibition of ACh-evoked responses of heteromeric nAChR subtypes [3]: relatively ineffective

SMILES: O=c1cccc2n1C[C@@H]1CNC[C@H]2C1 [cytisine]
- EC50 (zebrafish α7 nAChR [1]): 15 ± 3 µM
- Emax (zebrafish α7 nAChR [1]): 116 ± 6%
- Agonist type compared to ACh (zebrafish α7 nAChR [1]): full agonist
- EC50 (zebrafish α2β2 nAChR [8]): 4.1 ± 0.3 µM
- Emax (zebrafish α2β2 nAChR [8]; read-out: Imax): 9 ± 1%
- Emax [9]: 13 ± 0.3%
- Emax (zebrafish α4β2 nAChR [2]): 26 ± 1%
- EC50 (zebrafish α3β4 nAChR [5]): 11 ± 1 µM
- Emax (zebrafish α3β4 nAChR [5]): 12 ± 0.2%
- Agonist type compared to ACh (zebrafish α3β4 nAChR [5]): relatively weak partial agonist
- Relative amplitude of responses versus wild-type fish α3β4 ([10]; 100 µM cytisine, relative to 100 µM ACh control responses): significantly larger
- Effect of the F106Y mutation on efficacy ([10]; expressed relative to respective ACh maximums): no significant effect
- EC50 [11]: 460 ± 20 µM

SMILES: CNC1(C)C2CCC(C2)C1(C)C (stereo not shown) [mecamylamine]
- IC50 (zebrafish α7 nAChR [12]; Net charge IC50, α7, co-application with 60 µM ACh): 13 ± 3 µM
- IC50 (zebrafish α7 nAChR [12]; Peak current IC50, α7, co-application with 60 µM ACh): 28 ± 11 µM
- IC50 (zebrafish α3β4 nAChR [13]; Net charge IC50, α3β4, co-application with 100 µM ACh): 0.05 ± 0.01 µM
- IC50 (zebrafish α3β4 nAChR [13]; Peak current IC50, α3β4, co-application with 100 µM ACh): 0.6 ± 0.1 µM
- Reversibility of inhibition (zebrafish α3β4 nAChR [13]; α3β4, 3 µM mecamylamine): rapidly reversible
- IC50 (zebrafish α2β2 nAChR [14]; Net charge IC50, α2β2, co-application with 30 µM ACh): 3.5 ± 1.3 µM
- IC50 (zebrafish α2β2 nAChR [14]; Peak current IC50, α2β2, co-application with 30 µM ACh): 3 ± 0.7 µM
- Mecamylamine concentration giving significant (>25%) residual inhibition (zebrafish α2β2 nAChR [15]): ≥ 300 nM
- Effect on nicotine-induced increase of dihydroxyphenylacetic acid (zebrafish [16]): blocked
- Reversibility of inhibition ([17]; muscle-type receptors): readily reversible
- IC50 ([17]; read-out: Net charge IC50): 0.6 ± 0.07 µM
- IC50 ([17]; read-out: Peak current IC50): 1.8 ± 0.21 µM
- Effect on nicotine-induced improvement in spatial learning task (zebrafish [18]): blocked this nicotine-induced improvement
- Residual inhibition of ACh control responses following washout (rat α3β4 nAChR): 60%
- Mecamylamine concentration giving significant (>25%) residual inhibition (zebrafish α4β2 nAChR [19]): ≥ 30 nM
- Inhibition of fish versus human receptor subtypes [20]: significantly greater (p < 0.01)
- Effect on anxiolytic effect of nicotine (zebrafish [7]; 200 mg/l mecamylamine): blocked
- Reversibility of inhibition (zebrafish α7 nAChR [21]): readily reversible

SMILES: CN1CCC[C@H]1c1cccnc1 [nicotine]
- EC50 (zebrafish α7 nAChR [1]): 27 ± 6 µM
- Emax (zebrafish α7 nAChR [1]): 75 ± 4%
- Agonist type compared to ACh (zebrafish α7 nAChR [1]): full agonist
- Dihydroxyphenylacetic acid levels (zebrafish [16]): increases dihydroxyphenylacetic acid levels
- Emax [9]: 13 ± 3%
- Swimming activity (zebrafish [6]): increases swimming activity
- Emax (zebrafish α4β2 nAChR [2]): 70 ± 10%
- Agonist type compared to ACh (zebrafish α4β2 nAChR [2]; α4β2): partial agonist
- EC50 (zebrafish α3β4 nAChR [5]): 13 ± 6 µM
- Emax (zebrafish α3β4 nAChR [5]): 17 ± 2%
- Agonist type compared to ACh (zebrafish α3β4 nAChR [5]): partial agonist
- Effect in fish model of anxiety (zebrafish [7]; 100 mg/l): anxiolytic
- Performance in delayed spatial alternation task (zebrafish [22]; high doses): impaired
- Performance in delayed spatial alternation task (zebrafish [22]; low doses (100 mg/l in the water)): improved performance
- Agonist type compared to ACh [11]: partial agonist
- EC50 [11]: 140 ± 50 µM

SMILES: CN1[C@@H]2CCC[C@H]1CC2 [tropane]
- Activation of fish α7 nAChR (zebrafish α7 nAChR [1]): activate
- Activation of α4β2 receptors by probe concentration (zebrafish α4β2 nAChR [2]): evoked significant responses
- Inhibition of ACh-evoked responses of heteromeric nAChR subtypes [3]: effective at inhibiting the neuronal heteromeric receptor subtypes
